The text below walks through data of ChEMBL document CHEMBL1201862, “PubChem BioAssay data set” (2004).

A short description of series [1]: HepG2 cell cytotoxicity, dose response, cytotoxicity control for Shn3 inhibitor project, CellTiter-Glo, cherry-picked (AID 624134). Type of series: functional, cell-based.
Series [2] in a line: non-specific cell cytotoxicity, dose response, cytotoxicity control for PAX8 inhibitor project, plate reader, dry powder samples (AID 743021). The format is functional, cell-based.
Series [3] in a line: Shn3 3'UTR reporter inhibitors, dose response, cell-based, Clone20 osteoblasts, firefly luciferase, cherry-picked (AID 624132).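 Also: firefly luciferase luminescence from reporter carrying the Shn3 3'UTR in osteoblasts.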 Type of series: functional.
The nature of series [4]: inhibitors of PGC1a acetylation in cells, dose response, cell-based, cherry-picked samples (AID 720514).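 Also: potency may reflect raised or lowered acetylation signal.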 Type of series: functional.
Series [5] is described as follows: inhibitors of control Renilla luciferase reporter, dose response, counter-screen for Shn3 3'UTR targeting project, Clone20-Shn3RL cells, dual-Glo, cherry-pick, set 2 (AID 720724). Conditions: Dual-Go Shn3RL. The format is functional, cell-based. On the technique in general: Reporter assays use an easily measured gene product as a stand-in for the process of interest.

Series [6] in a line: control 3'UTR Renilla luciferase suppression, dose response, counter-screen for Shn3 inhibitor project, cell-based, Clone20-Shn3RL, cherry-picked (AID 624133). Type of series: functional. (In general: The purpose of a counterscreen is to sort out artefacts and off-target activity.)
The next series addresses Paired box protein Pax-8 (Homo sapiens, UniProt Q06710). As to the kind of experiment: inhibitors of PAX8-driven TPO luciferase reporter, dose response, RMG-I cells, cherry-pick (AID 687027).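 Also: luciferase reporter driven by Pax8 target thyroperoxidase promoter measured by SteadyGlo luminescence.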 Type of series: functional, cell-based.
The nature of series [7]: reduction of Shn3 3'UTR firefly luciferase signal, dose response, Schnurri-3 inhibitor project, cell-based, Clone20 osteoblasts, cherry-pick, set 2 (AID 720490).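 Also: actives lower the luminescence signal as inhibitors.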 The format is functional.
Series [8] is described as follows: A Cell Based Secondary Assay To Explore Cytotoxicity of Compounds that Sensitize Mycobacterium Tuberculosis to Beta-Lactam Antibiotics. The format is functional.
The target of a further series is T1, Cytochrome P450 1A2 (Homo sapiens, UniProt P05177).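 Also: PubChem cytochrome P450 panel assay, CYP1A2 panel member.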
T1 sequence (P05177 whole entry): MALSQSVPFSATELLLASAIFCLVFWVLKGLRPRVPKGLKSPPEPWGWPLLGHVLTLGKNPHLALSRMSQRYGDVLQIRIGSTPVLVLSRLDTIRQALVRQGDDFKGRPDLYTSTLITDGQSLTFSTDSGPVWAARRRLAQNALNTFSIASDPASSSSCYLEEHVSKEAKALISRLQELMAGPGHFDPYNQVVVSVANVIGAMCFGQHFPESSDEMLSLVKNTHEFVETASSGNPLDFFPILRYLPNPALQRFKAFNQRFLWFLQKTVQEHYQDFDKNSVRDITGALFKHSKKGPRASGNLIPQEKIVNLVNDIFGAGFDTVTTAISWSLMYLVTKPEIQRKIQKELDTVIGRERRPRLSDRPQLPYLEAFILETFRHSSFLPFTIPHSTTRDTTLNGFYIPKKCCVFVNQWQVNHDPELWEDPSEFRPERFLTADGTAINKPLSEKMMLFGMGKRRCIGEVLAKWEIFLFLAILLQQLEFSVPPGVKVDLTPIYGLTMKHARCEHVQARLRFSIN

Series [9] has as its target Voltage-gated inwardly rectifying potassium channel KCNH2 (Homo sapiens, UniProt Q12809). Conditions: Potency.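 Also: confirmatory quantitative high-throughput screen measuring inhibition of hERG channel activity.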
A further series deals with Cytochrome P450 3A4 (Homo sapiens, UniProt P08684).
Series [10] is described as follows: Luminescence Cell-Based Dose Retest to Confirm Inhibitors of Cancer Stem Cells. [Related pubchem assays (depositor defined):AID2717, AID2721]. Type of series: functional. Conditions: Homo sapiens.
The subject of a further series is HeLa. Nature of the series: HeLa cell cytotoxicity, dose response, cytotoxicity control, ATP luminescence, cherry-pick samples (AID 687004). Type of series: functional, cell-based. Conditions: Homo sapiens.
Series [11] is described as follows: HEK293 Cytotoxicity Assay Measured in Cell-Based System Using Plate Reader - 7071-01_Inhibitor_Dose_CherryPick_Activity_Set2. Type of series: functional.
In the next series the test system is HEK293. As to the kind of experiment: HEK293T cell cytotoxicity, dose response, cytotoxicity control, ATP luminescence, cherry-pick samples (AID 687005).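 Also: cells exposed to compound for 48 hours.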 Type of series: functional, cell-based. Conditions: Homo sapiens.
The nature of series [12]: ADAM10 inhibitors, peptide cleavage, dose response, biochemical, QFRET (AID 743254).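 Also: ADAM10 enzyme with the DM2 quenched FRET peptide as substrate; EDANS fluorescence gain as the protease cuts the substrate; inhibitor potency against ADAM10 proteolytic activity.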
The target in series [13] is Disintegrin and metalloproteinase domain-containing protein 17 (Homo sapiens, UniProt P78536). Nature of the series: ADAM17 protease inhibitors, dose response, counter-screen for ADAM10 exosite inhibitor project, biochemical, quenched FRET substrate (AID 743253).
Series [14] is described as follows: SNU-C1 cell viability reduction, dose response, CellTiter-Glo luminescence (AID 1117323). The format is functional, cell-based.
Series [15] in a line: cytotoxicity toward Colo320 cells – cell-based, CellTiter-Glo luminescence, IC50, dose response (AID 1117334). Type of series: functional. The conditions noted are these: COLO 320. Background: ATP-based viability assays read luminescence as a measure of living cells.
Series [16] can be described thus: HeLa 2N DNA content increase, dose response, cell-based, IC50 (AID 1117349). The format is functional.
Series [17] is described as follows: HCT116 cell viability decrease, GSK3B pretreatment – CellTiter-Glo, IC50, dose response (AID 1117339). The conditions noted are these: HCT-116. Type of series: functional.
Series [18] in a line: cytotoxicity toward HCT116 cells – cell-based, CellTiter-Glo luminescence, IC50, dose response (AID 1117332). The format is functional. The conditions noted are these: HCT-116.
Series [19] is described as follows: Concentration-dependent survival of SW480 colon cancer line, luminescence detection with CellTiter-Glo, half-maximal inhibitory concentration (AID 1117338). The format is functional.
The nature of series [20]: HeLa 4N DNA content increase, dose response, cell-based, IC50 (AID 1117351). Type of series: functional.
A short description of series [21]: CellTiter-Glo luminescent dose response of DLD-1 viability loss (AID 1117352). The format is functional.
Series [22] is described as follows: cytotoxicity toward HT-29 cells – cell-based, CellTiter-Glo luminescence, IC50, dose response (AID 1117330). Type of series: functional.
A short description of series [23]: RKO cell viability reduction, dose response, CellTiter-Glo luminescence (AID 1117322). Type of series: functional.

Molecules are shown by their SMILES. Calls of active or inactive are those of the source. Some results are limits rather than exact numbers.

Sequence of Paired box protein Pax-8 (Q06710 whole entry): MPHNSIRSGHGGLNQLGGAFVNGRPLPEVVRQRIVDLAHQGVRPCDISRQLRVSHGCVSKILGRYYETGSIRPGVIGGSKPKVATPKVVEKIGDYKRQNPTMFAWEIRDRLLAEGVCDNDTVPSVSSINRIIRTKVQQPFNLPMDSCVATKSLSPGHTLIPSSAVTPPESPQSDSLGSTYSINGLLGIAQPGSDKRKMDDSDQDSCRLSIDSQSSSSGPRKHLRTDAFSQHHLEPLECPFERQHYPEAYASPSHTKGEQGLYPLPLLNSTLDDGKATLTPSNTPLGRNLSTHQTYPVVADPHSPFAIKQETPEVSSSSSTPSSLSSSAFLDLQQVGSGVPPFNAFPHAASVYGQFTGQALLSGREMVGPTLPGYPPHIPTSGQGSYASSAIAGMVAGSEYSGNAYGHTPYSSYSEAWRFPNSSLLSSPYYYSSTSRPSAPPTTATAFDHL
Sequence of Disintegrin and metalloproteinase domain-containing protein 17 (P78536 whole entry, the tested form may be a part): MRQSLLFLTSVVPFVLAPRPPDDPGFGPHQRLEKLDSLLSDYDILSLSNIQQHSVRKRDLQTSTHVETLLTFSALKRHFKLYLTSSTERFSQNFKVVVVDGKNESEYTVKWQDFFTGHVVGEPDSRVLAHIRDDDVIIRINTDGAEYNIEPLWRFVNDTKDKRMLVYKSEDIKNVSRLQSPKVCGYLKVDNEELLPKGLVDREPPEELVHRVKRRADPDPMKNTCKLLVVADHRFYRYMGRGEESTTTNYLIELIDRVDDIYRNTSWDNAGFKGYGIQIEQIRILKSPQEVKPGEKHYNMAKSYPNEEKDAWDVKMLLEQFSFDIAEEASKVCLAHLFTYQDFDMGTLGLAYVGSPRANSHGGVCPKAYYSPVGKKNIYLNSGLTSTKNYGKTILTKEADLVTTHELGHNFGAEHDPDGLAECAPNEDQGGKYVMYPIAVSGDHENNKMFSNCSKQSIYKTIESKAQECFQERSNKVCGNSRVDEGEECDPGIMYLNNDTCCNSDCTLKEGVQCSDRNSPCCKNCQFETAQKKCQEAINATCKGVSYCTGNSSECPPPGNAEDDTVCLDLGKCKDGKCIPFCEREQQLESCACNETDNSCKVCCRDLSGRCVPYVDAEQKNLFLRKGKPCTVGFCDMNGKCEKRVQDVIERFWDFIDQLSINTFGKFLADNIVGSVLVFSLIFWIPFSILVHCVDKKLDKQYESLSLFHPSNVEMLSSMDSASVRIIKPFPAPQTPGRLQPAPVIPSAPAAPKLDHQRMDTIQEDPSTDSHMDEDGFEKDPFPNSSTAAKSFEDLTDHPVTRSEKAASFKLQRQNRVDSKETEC
Sequence of Cytochrome P450 3A4 (P08684 whole entry): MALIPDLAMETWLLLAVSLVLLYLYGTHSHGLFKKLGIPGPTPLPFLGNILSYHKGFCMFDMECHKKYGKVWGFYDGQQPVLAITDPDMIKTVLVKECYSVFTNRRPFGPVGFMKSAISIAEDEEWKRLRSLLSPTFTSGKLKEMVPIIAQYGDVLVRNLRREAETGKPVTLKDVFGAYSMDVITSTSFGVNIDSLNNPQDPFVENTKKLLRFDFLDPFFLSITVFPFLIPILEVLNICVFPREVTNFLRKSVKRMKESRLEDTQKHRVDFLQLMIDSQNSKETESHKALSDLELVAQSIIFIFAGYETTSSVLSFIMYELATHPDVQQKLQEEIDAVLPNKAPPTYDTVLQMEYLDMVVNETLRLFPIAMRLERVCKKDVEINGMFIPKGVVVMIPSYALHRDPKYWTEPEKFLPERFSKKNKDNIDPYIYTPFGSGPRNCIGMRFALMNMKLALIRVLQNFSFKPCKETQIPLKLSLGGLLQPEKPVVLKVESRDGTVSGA
Sequence of Voltage-gated inwardly rectifying potassium channel KCNH2 (Q12809 whole entry): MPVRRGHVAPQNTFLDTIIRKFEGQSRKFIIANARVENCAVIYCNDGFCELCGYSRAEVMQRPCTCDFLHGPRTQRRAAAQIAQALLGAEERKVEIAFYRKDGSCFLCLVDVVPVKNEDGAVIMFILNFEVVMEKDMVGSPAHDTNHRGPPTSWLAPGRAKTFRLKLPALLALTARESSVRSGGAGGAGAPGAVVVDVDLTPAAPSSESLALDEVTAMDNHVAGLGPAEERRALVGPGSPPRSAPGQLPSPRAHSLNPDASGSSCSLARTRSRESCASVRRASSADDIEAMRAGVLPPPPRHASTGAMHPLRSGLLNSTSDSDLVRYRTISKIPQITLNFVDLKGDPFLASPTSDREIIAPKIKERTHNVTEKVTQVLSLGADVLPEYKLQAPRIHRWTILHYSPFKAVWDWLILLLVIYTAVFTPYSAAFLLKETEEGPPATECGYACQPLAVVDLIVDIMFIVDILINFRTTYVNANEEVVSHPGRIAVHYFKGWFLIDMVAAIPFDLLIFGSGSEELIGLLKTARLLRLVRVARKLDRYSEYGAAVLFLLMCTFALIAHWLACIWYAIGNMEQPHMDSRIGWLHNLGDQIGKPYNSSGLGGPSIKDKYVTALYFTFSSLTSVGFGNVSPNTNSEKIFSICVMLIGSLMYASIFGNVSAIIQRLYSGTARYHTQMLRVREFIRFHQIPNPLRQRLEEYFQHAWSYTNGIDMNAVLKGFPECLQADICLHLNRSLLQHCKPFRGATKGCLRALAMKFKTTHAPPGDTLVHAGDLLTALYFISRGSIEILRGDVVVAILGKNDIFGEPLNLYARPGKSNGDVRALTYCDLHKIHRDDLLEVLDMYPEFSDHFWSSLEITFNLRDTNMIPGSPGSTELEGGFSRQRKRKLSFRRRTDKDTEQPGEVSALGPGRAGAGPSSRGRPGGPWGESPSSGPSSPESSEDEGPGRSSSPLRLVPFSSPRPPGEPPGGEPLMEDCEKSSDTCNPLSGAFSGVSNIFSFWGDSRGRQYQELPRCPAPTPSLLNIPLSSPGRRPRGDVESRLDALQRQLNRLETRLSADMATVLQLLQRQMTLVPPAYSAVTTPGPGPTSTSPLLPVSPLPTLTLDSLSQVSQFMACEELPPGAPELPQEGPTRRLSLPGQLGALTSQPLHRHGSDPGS

In general, AC50 refers to the concentration giving half of the maximal activity seen. For `Oc1nc2ccccc2n1C1CCN(C(CCc2ccccc2)c2nnnn2Cc2ccccc2)CC1` (stereo not drawn), the AC50 is 13.5 µM (active) in series [1]; 11.4 µM (active) in series [2]; 1.23 µM (active) in series [3]; 3.88 µM (active) in [4]; 20.3 µM (active) in series [5]; 60.9 µM (active) in [6]. Also, the AC50 on Paired box protein Pax-8 was 1.4 µM (active); in series [7], 3.97 µM (active).
By CC50 is commonly meant the concentration at which the toxic effect on the cells reaches its halfway point. Take `Nc1ncnc2c1c(-c1ccc(Oc3ccccc3)cc1)cn2C1CCCC1`: the AC50 in [1] was > 70 µM (inactive); at Cytochrome P450 1A2, 15.8 µM (inconclusive); in [9] it was 5.01 µM (inconclusive); in series [3] it was 0.658 µM (active); in series [5], 56.8 µM (active); in [6], 31.7 µM (active). For the same compound, the figures for the AC50 entry (at Cytochrome P450 3A4; in series [7]; in series [10]) were “inconclusive”, 4.83 µM (active) and 3.03 µM (active), respectively. Also, the half-maximal cytotoxic concentration (CC50) in [8] is 0.802 µM (active).
As for `C[C@@H]1CN([C@H](C)CO)C(=O)c2cccc(NC(=O)Nc3ccccc3)c2O[C@@H]1CN(C)Cc1ccc(Cl)c(Cl)c1`, the values for the AC50 (with HeLa; in series [11]; in the series with HEK293) were 45.7 µM (active), 9.06 µM (active) and 9.06 µM (active), respectively.
Broadly, the IC50 is the concentration needed to halve the response being measured. `COc1ccccc1NS(=O)(=O)c1cc(NC(=O)c2cc(F)c(F)c(F)c2F)ccc1N1CCOCC1`: the IC50 in series [12] and in [13] was > 69.5 µM (inactive) in each case.
On to `Cc1cc(O)c2c3c4c(cc(O)c13)C(C)(C)C(=O)c1c(O)cc(O)c(c1-4)C2=O` [HELIOMYCIN], for which the IC50 in series [14] is 0.332 µM (active); in series [15], 0.082 µM (active); in series [16], > 10 µM (inactive); in series [17], 0.0574 µM (active); in series [18], 0.0775 µM (active); in [19] it was 0.058 µM (active). For the same compound, the IC50 was > 10 µM (inactive) in series [20], 0.0709 µM (active) in series [21], 3.01 µM (active) in [22] and 0.0754 µM (active) in series [23].
